The source of these data is patent publication US8410289B2, “Spirocyclic 3'-alkoxytetramic acids and-tetronic acids” (Bayer Cropscience AG, priority 2004, dated 2013).

Structures are written as SMILES.

One series is described as follows: log P determination by HPLC on reverse-phase column (C 18), EEC-Directive 79/831 Annex V.A8. The conditions noted are these: HPLC reverse-phase C 18, acidic range pH 2.3, 43° C. The format is physicochemical. The protocol: • The log P values given in the tables and preparation examples above are determined in accordance with EEC-Directive 79/831 Annex V.A8 by HPLC (High Performance Liquid Chromatography) on a reverse-phase column (C 18). Temperature: 43° C.
The determination is carried out in the acidic range at pH 2.3 using the mobile phases 0.1% aqueous phosphoric acid and acetonitrile; linear gradient from 10% acetonitrile to 95% acetonitrile.
The LC-MS determination in the acidic range is carried out at pH 2.7 using the mobile phases 0.1% aqueous formic acid and acetonitrile (contains 0.1% formic acid); linear gradient from […] acetonitrile to 95% acetonitrile.
The LC-MS determination in the neutral range is carried out at pH 7.8 using the mobile phases 0.001 molar aqueous ammonium bicarbonate solution and acetonitrile; linear gradient from 10% acetonitrile to 95% acetonitrile.
The calibration is carried out using unbranched alkan-2-ones (with 3 to 16 carbon atoms) with known log P values (determination of the log P values by retention times using linear interpolation between two successive alkanones).
Take `COc1cc(C)cc(C)c1C1=C(OC(=O)OC(C)C)C2(CCCC(OC)C2)OC1=O` (stereo not drawn) [Example I-2-c-6]: the logP is 3.90.

`COC1CCCC2(C1)OC(=O)C(c1cc(-c3ccc(Cl)cc3)c(C)cc1C)=C2OC(=O)OC(C)C` (stereo not drawn) [Example I-2-c-2] gave a logP of 5.32.

As for `COc1cc(C)cc(C)c1C1=C(OC(=O)OC(C)C)C2(CCCC(OC)C2)OC1=O` (stereo not drawn) [Example I-2-c-5], the logP came to 3.75.

Still in this series, the particulars now being: compounds of formula (I-2-a); generally isomer mixtures; those marked 1) were separated into cis and trans diastereomers.
With `COc1cc(C)cc(C)c1C1=C(O)C2(CCCC(OC)C2)OC1=O` (single isomer, unassigned) [Example I-2-a-16], the logP is 2.10^1).

On to `COC1CCCC2(C1)OC(=O)C(c1c(Cl)cc(Br)c(C)c1Cl)=C2O` (stereo not drawn) [I-2-a-53], for which the logP amounted to 2.70.

Consider `COC1CCCC2(C1)OC(=O)C(c1ccc(Br)cc1Cl)=C2O` (mixture of isomers) [Example I-2-a-37], for which the logP came out at 2.31.

For the compound `COC1CCCC2(C1)OC(=O)C(c1c(C)cc(C)cc1Br)=C2O` (stereo not drawn) [Example I-2-a-28], the logP is 2.36.

As to `COC1CCCC2(C1)OC(=O)C(c1cc(Cl)c(C)cc1Cl)=C2O` (mixture of isomers) [I-2-a-48], the lipophilicity (logP) amounted to 2.47.

`COC1CCCC2(C1)OC(=O)C(c1c(Br)cc(C)cc1Br)=C2O` (stereo not drawn) [I-2-a-19]: the logP came to 2.51.

Turning to `COC1CCCC2(C1)OC(=O)C(c1c(Cl)ccc(C)c1Cl)=C2O` (mixture of isomers) [Example I-2-a-52], the logP came out at 2.23.

For `COC1CCCC2(C1)OC(=O)C(c1ccc(C)cc1Cl)=C2O` (stereo not drawn) [Example I-2-a-22], the logP turned out to be 2.13.

Take `CCCCOC1CCCC2(C1)OC(=O)C(c1c(CC)cc(Br)cc1CC)=C2O` (stereo not drawn) [I-2-a-55]: the logP came out at 4.24.

For the compound `COC1CCCC2(C1)OC(=O)C(c1c(C)cc(Br)cc1C)=C2O` (stereo not drawn) [Example I-2-a-10], the logP came out at 2.40.

Turning to `COC1CCCC2(C1)OC(=O)C(c1cc(Cl)c(Br)cc1Cl)=C2O` (mixture of isomers) [I-2-a-40], the logP amounted to 2.53.

With `COC1CCCC2(C1)OC(=O)C(c1cc(-c3ccc(Cl)cc3)ccc1C)=C2O` (single isomer, unassigned) [Example I-2-a-32], the logP is reported as 3.19^1).

For `COC1CCCC2(C1)OC(=O)C(c1cc(F)c(C)cc1Br)=C2O` (mixture of isomers) [I-2-a-44], the logP stood at 2.25.

As to `COC1CCCC2(C1)OC(=O)C(c1ccc(Cl)cc1C)=C2O` (single isomer, unassigned) [Example I-2-a-8], the lipophilicity (logP) is given as 2.11.

In the case of `COC1CCCC2(C1)OC(=O)C(c1c(C)cc(C)c(Br)c1C)=C2O` (mixture of isomers) [I-2-a-41], the logP came to 2.70.

On to `CCCCOC1CCCC2(C1)OC(=O)C(c1cc(C)ccc1C)=C2O` (stereo not drawn) [I-2-a-62], for which the logP came out at 3.36.

As for `CCOC1CCCC2(C1)OC(=O)C(c1c(C)cc(-c3ccc(Cl)cc3)cc1CC)=C2O` (stereo not drawn) [Example I-2-a-17], the log partition coefficient (logP) was determined as 4.19.

In the case of `CCCCOC1CCCC2(C1)OC(=O)C(c1ccccc1C)=C2O` (stereo not drawn) [I-2-a-57], the logP is given as 3.03.

For the compound `CCc1cc(Br)cc(Br)c1C1=C(O)C2(CCCC(OC)C2)OC1=O` (stereo not drawn) [Example I-2-a-26], the logP was determined as 2.77.

For the compound `COC1CCCC2(C1)OC(=O)C(c1cc(-c3cccc(Cl)c3)ccc1C)=C2O` (stereo not drawn) [Example I-2-a-33], the logP worked out at 3.16.

On to `COc1ccc(C2=C(O)C3(CCCC(OC)C3)OC2=O)c(C)c1` (mixture of isomers) [Example I-2-a-50], for which the logP worked out at 2.21.

Consider `COC1CCCC2(C1)OC(=O)C(c1cc(C)c(Cl)cc1C)=C2O` (mixture of isomers) [I-2-a-43], for which the logP worked out at 2.47.

On to `COC1CCCC2(C1)OC(=O)C(c1ccccc1C)=C2O` (stereo not drawn) [Example I-2-a-7], for which the logP worked out at 1.81.

As for `COC1CCCC2(C1)OC(=O)C(c1cc(C)ccc1Br)=C2O` (mixture of isomers) [Example I-2-a-49], the logP amounted to 2.16.

On to `COC1CCCC2(C1)OC(=O)C(c1cc(C)c(C)cc1Br)=C2O` (stereo not drawn) [Example I-2-a-9], for which the log partition coefficient (logP) is 2.35.

Take `CCCCOC1CCCC2(C1)OC(=O)C(c1c(C)cc(Br)cc1CC)=C2O` (stereo not drawn) [I-2-a-63]: the logP worked out at 3.99.

Turning to `COC1CCCC2(C1)OC(=O)C(c1c(Cl)cccc1Cl)=C2O` (stereo not drawn) [Example I-2-a-15], the log partition coefficient (logP) is listed as 1.93.

Consider `CCCCOC1CCCC2(C1)OC(=O)C(c1c(C)cc(C)c(C)c1C)=C2O` (stereo not drawn) [I-2-a-61], for which the logP stood at 3.76.

With `COC1CCCC2(C1)OC(=O)C(c1c(C)cc(C)c(F)c1C)=C2O` (stereo not drawn) [Example I-2-a-54], the logP is 2.45.

`COC1CCCC2(C1)OC(=O)C(c1c(C)cc(Br)c(C)c1Br)=C2O` (mixture of isomers) [Example I-2-a-47]: the logP was determined as 2.78.

On to `COC1CCCC2(C1)OC(=O)C(c1c(C)cc(C)cc1C)=C2O` (single isomer, unassigned) [Example I-2-a-14], for which the logP was 2.31^1).

As for `CCc1cc(Br)cc(C)c1C1=C(O)C2(CCCC(OC)C2)OC1=O` (stereo not drawn) [Example I-2-a-13], the logP came to 2.74.

In the case of `COC1CCCC2(C1)OC(=O)C(c1cc(-c3ccc(Cl)cc3)ccc1Cl)=C2O` (stereo not drawn) [Example I-2-a-31], the logP is listed as 3.14.

`CCCCOC1CCCC2(C1)OC(=O)C(c1ccc(C)cc1Cl)=C2O` (stereo not drawn) [I-2-a-56]: the logP worked out at 3.32.

As to `COC1CCCC2(C1)OC(=O)C(c1cc(C)ccc1C)=C2O` (mixture of isomers) [Example I-2-a-35], the logP is on record as 2.15.

Regarding `COC1CCCC2(C1)OC(=O)C(c1cc(C)c(C)cc1C)=C2O` (stereo not drawn) [Example I-2-a-11], the logP is 2.21.

On to `COC1CCCC2(C1)OC(=O)C(c1c(Cl)cc(C)cc1Br)=C2O` (stereo not drawn) [Example I-2-a-5], for which the logP was 2.40.

Turning to `COC1CCCC2(C1)OC(=O)C(c1ccc(Cl)cc1C)=C2O` (single isomer, unassigned) [Example I-2-a-6], the logP stood at 2.19.

Turning to `COC1CCCC2(C1)OC(=O)C(c1cc(-c3cccc(Cl)c3)ccc1Cl)=C2O` (stereo not drawn) [Example I-2-a-34], the logP came to 3.11.

`COC1CCCC2(C1)OC(=O)C(c1ccc(Cl)cc1Br)=C2O` (mixture of isomers) [Example I-2-a-36]: the logP was determined as 2.25.

`COC1CCCC2(C1)OC(=O)C(c1c(C)cc(Cl)cc1Cl)=C2O` (stereo not drawn) [Example I-2-a-20]: the logP is recorded as 2.41.

With `CCCCOC1CCCC2(C1)OC(=O)C(c1cc(C)c(C)cc1Br)=C2O` (stereo not drawn) [I-2-a-59], the logP is reported as 3.57.

Consider `COC1CCCC2(C1)OC(=O)C(c1ccc(Cl)cc1C(F)(F)F)=C2O` (stereo not drawn) [I-2-a-24], for which the logP worked out at 2.37.

Take `COC1CCCC2(C1)OC(=O)C(c1c(C)ccc(-c3ccc(Cl)cc3)c1C)=C2O` (mixture of isomers) [Example I-2-a-42]: the logP turned out to be 3.29.

On to `COC1CCCC2(C1)OC(=O)C(c1cc(Br)ccc1C)=C2O` (stereo not drawn) [I-2-a-23], for which the logP was determined as 2.30.

Turning to `COC1CCCC2(C1)OC(=O)C(c1c(C)ccc(Cl)c1C)=C2O` (mixture of isomers) [Example I-2-a-46], the logP came to 2.42.

With `COC1CCCC2(C1)OC(=O)C(c1cc(Br)ccc1Br)=C2O` (mixture of isomers) [I-2-a-51], the log partition coefficient (logP) is 2.27.

Take `COC1CCCC2(C1)OC(=O)C(c1c(C)cc(C)c(C)c1C)=C2O` (stereo not drawn) [Example I-2-a-12]: the logP was 2.50.

Turning to `COC1CCCC2(C1)OC(=O)C(c1ccc(Cl)cc1Cl)=C2O` (mixture of isomers) [Example I-2-a-39], the logP was 2.21.

Consider `COC1CCCC2(C1)OC(=O)C(c1cc(-c3ccc(Cl)cc3)c(C)cc1C)=C2O` (mixture of isomers) [Example I-2-a-2], for which the logP amounted to 3.4.

With `COC1CCCC2(C1)OC(=O)C(c1ccccc1Cl)=C2O` (mixture of isomers) [I-2-a-38], the logP was determined as 1.86.

Consider `COC1CCCC2(C1)OC(=O)C(c1c(C)cccc1Cl)=C2O` (stereo not drawn) [I-2-a-25], for which the logP was 1.92.

For `COC1CCCC2(C1)OC(=O)C(c1cc(F)c(C)cc1C)=C2O` (mixture of isomers) [Example I-2-a-45], the logP is given as 2.25.

The series is the same for the next values; noted with them: compounds of formula (I-2-b); isomer (cis, trans or α + β about 1:1); two values for α + β mixtures.
For `COC1CCCC2(C1)OC(=O)C(c1c(C)cc(C)cc1C)=C2OC(=O)C(C)C` (stereo not drawn) [Example I-2-b-3], the logP is reported as 4.32.

Turning to `COc1cc(C)cc(C)c1C1=C(OC(=O)C(C)C)C2(CCCC(OC)C2)OC1=O` (stereo not drawn) [Example I-2-b-5], the logP was 3.90.

`COc1cc(C)cc(C)c1C1=C(OC(=O)C(C)C)C2(CCCC(OC)C2)OC1=O` (stereo not drawn) [Example I-2-b-6]: the logP was determined as 3.75.

With `COC1CCCC2(C1)OC(=O)C(c1cc(-c3ccc(Cl)cc3)c(C)cc1C)=C2OC(=O)C(C)C` (stereo not drawn) [Example I-2-b-2], the logP worked out at 5.25.

`COC1CCCC2(C1)OC(=O)C(c1c(C)cc(C)cc1C)=C2OC(=O)C(C)C` (stereo not drawn) [Example I-2-b-4]: the logP worked out at 4.15.

Still in this series, the particulars now being: compounds of formula (II); two values where an α/β isomer mixture is given.
Consider `CCc1cc(C)cc(Br)c1CC(=O)NC1(C(=O)OC)CCCC(OCCOC)C1` (single isomer, unassigned) [II-28], for which the “log P” value is listed as “log P 3.64”.

Still in this series, the particulars now being: reverse-phase HPLC column (C 18); HPLC, reverse-phase column (C 18), 43° C.
`CO[C@H]1CCC[C@@]2(C1)OC(=O)C(c1cc(-c3ccc(Cl)cc3)c(C)cc1C)=C2OC(=O)OC(C)C` [Example I-2-c-1]: the chromatographic logP worked out at 5.21.
